Assay results published in the NIST ThermoML archive (doi:10.1007/s10765-010-0766-0).
“And” between values parts separate entries of the source, which are not always exact repeats. Equal values may be shown once.

Test: molar heat capacity at constant volume
Settings: Liquid, Vacuum adiabatic calorimetry

FC(F)C(F)(F)OCC(F)(F)F [2,2,2-trifluoroethyl 1,1,2,2-tetrafluoroethyl ether]
Settings | molar heat capacity at constant volume
279.15 K, 5663 kPa | 189.85 J/K/mol
280.15 K, 6663 kPa | 187.85 J/K/mol
280.15 K, 6673 kPa | 191.45 J/K/mol
281.15 K, 7673 kPa | 194.25 J/K/mol
281.15 K, 7685 kPa | 189.25 J/K/mol
282.15 K, 8685 kPa | 190.65 J/K/mol
282.15 K, 8696 kPa | 193.65 J/K/mol
283.15 K, 9695 kPa | 191.85 J/K/mol
283.15 K, 9705 kPa | 192.45 J/K/mol
284.15 K, 10704 kPa | 193.45 J/K/mol
284.15 K, 10712 kPa | 191.85 J/K/mol
285.15 K, 11710 kPa | 191.65 J/K/mol
285.15 K, 11717 kPa | 193.65 J/K/mol
286.15 K, 12714 kPa | 193.85 J/K/mol
286.15 K, 12720 kPa | 191.65 J/K/mol
287.15 K, 13718 kPa | 193.05 J/K/mol
287.15 K, 13722 kPa | 194.65 J/K/mol
288.15 K, 14719 kPa | 192.25 J/K/mol
288.15 K, 14722 kPa | 193.05 J/K/mol
289.15 K, 15719 kPa | 193.65 J/K/mol
289.15 K, 15720 kPa | 193.25 J/K/mol
290.15 K, 16716 kPa | 193.45 J/K/mol
290.15 K, 16717 kPa | 195.85 J/K/mol
291.15 K, 17711 kPa | 193.65 J/K/mol
291.15 K, 17712 kPa | 194.45 J/K/mol
292.15 K, 18703 kPa | 193.05 J/K/mol
292.15 K, 18704 kPa | 193.05 J/K/mol
293.15 K, 19694 kPa | 193.45 J/K/mol and 195.45 J/K/mol
294.15 K, 20683 kPa | 194.85 J/K/mol and 193.25 J/K/mol
295.15 K, 21669 kPa | 192.45 J/K/mol and 193.65 J/K/mol
296.15 K, 22653 kPa | 195.05 J/K/mol
296.15 K, 22654 kPa | 195.85 J/K/mol
297.15 K, 23636 kPa | 193.85 J/K/mol and 194.45 J/K/mol
298.15 K, 24616 kPa | 193.85 J/K/mol
298.15 K, 24617 kPa | 193.85 J/K/mol
299.15 K, 25595 kPa | 195.45 J/K/mol
299.15 K, 25596 kPa | 196.45 J/K/mol
300.15 K, 26572 kPa | 194.05 J/K/mol
300.15 K, 26573 kPa | 193.85 J/K/mol
301.15 K, 6294 kPa | 197.05 J/K/mol
301.15 K, 27548 kPa | 196.25 J/K/mol and 195.85 J/K/mol
302.15 K, 7147 kPa | 196.45 J/K/mol
302.15 K, 28521 kPa | 195.05 J/K/mol
302.15 K, 28522 kPa | 193.65 J/K/mol
303.15 K, 8010 kPa | 194.05 J/K/mol
303.15 K, 8015 kPa | 197.65 J/K/mol
303.15 K, 29493 kPa | 196.65 J/K/mol and 196.85 J/K/mol
304.15 K, 8873 kPa | 195.25 J/K/mol
304.15 K, 8874 kPa | 194.45 J/K/mol
305.15 K, 9734 kPa | 197.65 J/K/mol and 197.85 J/K/mol
306.15 K, 10592 kPa | 195.45 J/K/mol
306.15 K, 10594 kPa | 196.05 J/K/mol
307.15 K, 11449 kPa | 197.25 J/K/mol
307.15 K, 11452 kPa | 197.05 J/K/mol
308.15 K, 12303 kPa | 195.25 J/K/mol
308.15 K, 12308 kPa | 196.25 J/K/mol
309.15 K, 13157 kPa | 197.45 J/K/mol
309.15 K, 13163 kPa | 197.45 J/K/mol
310.15 K, 14009 kPa | 195.65 J/K/mol
310.15 K, 14016 kPa | 196.45 J/K/mol
311.15 K, 14859 kPa | 196.45 J/K/mol
311.15 K, 14867 kPa | 197.05 J/K/mol
312.15 K, 15708 kPa | 198.05 J/K/mol
312.15 K, 15718 kPa | 197.25 J/K/mol
313.15 K, 16557 kPa | 196.85 J/K/mol
313.15 K, 16566 kPa | 197.05 J/K/mol
314.15 K, 17405 kPa | 198.05 J/K/mol
314.15 K, 17414 kPa | 196.85 J/K/mol
315.15 K, 18252 kPa | 199.05 J/K/mol
315.15 K, 18260 kPa | 196.45 J/K/mol
316.15 K, 19097 kPa | 197.45 J/K/mol
316.15 K, 19105 kPa | 197.85 J/K/mol
317.15 K, 19942 kPa | 200.86 J/K/mol
317.15 K, 19949 kPa | 198.45 J/K/mol
318.15 K, 20785 kPa | 198.25 J/K/mol
318.15 K, 20791 kPa | 198.65 J/K/mol
319.15 K, 21626 kPa | 197.85 J/K/mol
319.15 K, 21632 kPa | 197.65 J/K/mol
320.15 K, 22467 kPa | 200.45 J/K/mol
320.15 K, 22471 kPa | 199.25 J/K/mol
321.15 K, 23306 kPa | 199.25 J/K/mol
321.15 K, 23311 kPa | 198.45 J/K/mol
322.15 K, 24144 kPa | 199.05 J/K/mol
322.15 K, 24148 kPa | 198.05 J/K/mol
323.15 K, 24980 kPa | 199.65 J/K/mol
323.15 K, 24983 kPa | 199.05 J/K/mol
324.15 K, 25816 kPa | 200.66 J/K/mol
324.15 K, 25819 kPa | 201.06 J/K/mol
325.15 K, 26650 kPa | 199.05 J/K/mol
325.15 K, 26653 kPa | 197.05 J/K/mol
326.15 K, 27482 kPa | 200.86 J/K/mol
326.15 K, 27484 kPa | 199.85 J/K/mol
327.15 K, 28313 kPa | 199.65 J/K/mol
327.15 K, 28315 kPa | 198.65 J/K/mol
328.15 K, 29144 kPa | 200.66 J/K/mol
328.15 K, 29145 kPa | 201.86 J/K/mol
329.15 K, 7678 kPa | 198.25 J/K/mol
329.15 K, 7689 kPa | 201.66 J/K/mol
329.15 K, 29973 kPa | 201.66 J/K/mol
329.15 K, 29975 kPa | 200.25 J/K/mol
330.15 K, 8385 kPa | 206.66 J/K/mol
330.15 K, 8394 kPa | 203.66 J/K/mol
331.15 K, 9091 kPa | 203.86 J/K/mol
331.15 K, 9099 kPa | 203.26 J/K/mol
332.15 K, 9796 kPa | 205.26 J/K/mol
332.15 K, 9803 kPa | 203.46 J/K/mol
333.15 K, 10500 kPa | 204.86 J/K/mol
333.15 K, 10506 kPa | 204.26 J/K/mol
334.15 K, 11204 kPa | 205.86 J/K/mol
334.15 K, 11209 kPa | 204.66 J/K/mol
335.15 K, 11908 kPa | 206.26 J/K/mol
335.15 K, 11912 kPa | 205.06 J/K/mol
336.15 K, 12610 kPa | 205.26 J/K/mol
336.15 K, 12614 kPa | 204.26 J/K/mol
337.15 K, 13313 kPa | 208.46 J/K/mol
337.15 K, 13315 kPa | 206.66 J/K/mol
338.15 K, 14014 kPa | 204.26 J/K/mol
338.15 K, 14016 kPa | 204.66 J/K/mol
339.15 K, 14714 kPa | 208.46 J/K/mol
339.15 K, 14716 kPa | 206.06 J/K/mol
340.15 K, 15413 kPa | 207.06 J/K/mol
340.15 K, 15416 kPa | 206.86 J/K/mol
341.15 K, 16111 kPa | 207.06 J/K/mol
341.15 K, 16114 kPa | 208.06 J/K/mol
